Structures are written as SMILES. Values after ≈ are worked out from the molar mass of the structure shown.

What is called solubility is the dissolved amount per volume that the medium holds. Low values mean little dissolved substance, high ones much dissolved substance.

Holding throughout (assay type): physicochemical
Data set [1] in a line: Dissolution rate of capsules filled with granule particles (paddle 50 rpm). The conditions noted are these: pH 3, 50 mg dose in 900 mL. On the procedure: Variant P7 was selected as the optimized granule composition in terms of copovidone and SLS ratio, thus the amount to be sprayed on the inert substrate (carrier particle) allow a drug load of 20%, based on the total weight of the granule particle, in a reasonable processing time. The dissolution performance of the different variant of granule particle compositions was evaluated to ensure the dissolution profile was in a good range. The dissolution rate is measured by conventional method (paddle method according to Pharm. Eur. 2.9.3 “Dissolution Test for Solid Dosage Forms” or US Pharmacopeia <711> “Dissolution” or Japanese Pharmacopiea <6.10> “Dissolution Test), as it can be seen in FIG. 1 and FIG. 2, by adding the granule particles prepared as mentioned in Table 1 into capsules (e.g. hard gelatin capsule). […] Some of the tested capsules comprising the above mentioned granule particles, the disintegration and dispersion of the content was delayed, leading to a delayed dissolution rate (DR) profile at paddle 50 rpm. […]
In order to have a better understanding of the formulation/pH profile, the dissolution rate profiles of the formulations described in Table 2 and Table 3 were measured at pH 2, pH 3, pH 4.5 and pH 6.8. […]

Data set [2] can be described thus: pH dependent solubility of Compound (A).
Data set [3] can be described thus: Particle size of wet-media milled suspension by Photon Correlation Spectroscopy (PCS). The conditions noted are these: Example 7. An excerpt: The following examples illustrate the invention and provide support for the disclosure of the present invention without limiting the scope of the invention. • Analytical Centrifugation (AC), e.g., LUMiSizer, LUM GmbH Germany, SEPView 6.1.2570.2022. Wet dispersion method using purified water solution for dilution of suspension to appropriate attenuation level with about 10 to 70% transmission of first measurement profile. The reported results for X10, X50, X90 are intensity weighted. • Photon Correlation Spectroscopy (PCS), e.g., Zetasizer Nano ZS, Malver Panalytical Ltd., UK, Version 7.3. Wet dispersion method using 0.1 mM NaCl solution (in purified water) for dilution of suspension to appropriate attenuation level with about 2 to 9 attenuator index. The reported results for Xmean are intensity weighted. In particular, the attenuator index is 5. Preferably, the measurement is carried at 25° C. […]

Turning to `C=CC(=O)N(C)CCOc1c(N)ncnc1-c1cc(F)cc(NC(=O)c2ccc(C3CC3)cc2F)c1C` [Compound (A), N-(3-(6-amino-5-(2-(N-methylacrylamido)ethoxy)pyrimidin-4-yl)-5-fluoro-2-methylphenyl)-4-cyclopropyl-2-fluorobenzamide], the “percent of dose dissolved at plateau” value in data set [1] turned out to be 90%. For the same compound, in data set [2], the “Biopharmaceutics classification system Class” value is reported as “Class 2”. Further, the solubility in data set [2] (pH 1.2, simulated gastric fluid) is 3000 µg/mL (≈ 5910 µM); in data set [2] (pH 2, simulated gastric fluid), 300 µg/mL (≈ 591 µM); in data set [2] (pH 3, aqueous buffer), 3 µg/mL (≈ 5.91 µM). In addition, the “particle size of the DS in wet media milled before dilution for spray granulation” value in data set [3] turned out to be 123 nm.

Values taken from US20250281413A1, “PHARMACEUTICAL COMPOSITION” (Novartis AG, priority 2021, published 2025).
